Test results from BigSolDB 2.1.

CC[C@H](C)[C@H]1O[C@]2(CC[C@@H]1C)C[C@@H]1C[C@@H](C/C=C(\C)[C@@H](O[C@H]3C[C@H](OC)[C@@H](O[C@H]4C[C@H](OC)[C@@H](O)[C@H](C)O4)[C@H](C)O3)[C@@H](C)/C=C/C=C3\CO[C@@H]4[C@H](O)C(C)=C[C@@H](C(=O)O1)[C@]34O)O2
solubility (mole fraction)
Settings	293.2 K	298.2 K	303.2 K	308.2 K	313.2 K
in isopropanol	0.0675	0.0823	0.0915	0.0967	0.106
in n-propanol	0.089	0.105	0.115	0.122	0.136
in water	5.1e-06	5.6e-06	6.1e-06	6.5e-06	6.9e-06
